Measurements: patent US20260183322A1, “BORON-BASED ENOLASE LIGANDS AND METHODS OF USE FOR TREATMENT OF CANCER” (LOMA LINDA UNIVERSITY, priority 2022, published 2026)

What was measured:
Type in all cases: cell-based
[1] = system: parental and DR cell lines (PC3 and DU145); assay: Cytotoxic activity in parental and DR prostate cancer cell lines; settings: for cytotoxic activity (anti-cancer effects): general statement; for cytotoxicity compared with the other compounds of the ten: in vitro cytotoxicity and anti-proliferative data in docetaxel resistant PCa cell lines; for cell viability: parental and DR cell lines (PC3 and DU145)
Description: Out of the initial ten compounds, two target-to-hit specific ligands were identified, BT-768 and BT-772, from the diazaborine-based pharmacophore group and 2-Chloro substituted acetamide derivatives. BT-768 and BT-772 were selected for further studies based on their in vitro cytotoxicity and anti-proliferative data in docetaxel resistant PCa cell lines (see FIG. 3A and FIG. 3B, and FIG. 4A and FIG. 4B). […] The boron-based ligands BT-768 and BT-772 cytotoxic activity in parental and DR cell lines (PC3 and DU145) were then measured.
(§1) FIG. 3A and FIG. 3B, for example, are graphical representations of 3-(4,5-dimethylthiazol-2-yl)-2,5-diphenyl-2H-tetrazolium bromide MTT assay-based dose response curve for the ligand BT-772. FIG. 3A and FIG. 3B represent the average of three independent experiments in triplicates normalized to untreated control assays. As shown in FIG. 3A and FIG. 3B, cell viability was measured by MTT assay. In FIG. 3A, PC3 and PC3-DR cells were treated with increasing concentrations of BT-772 for twenty-four hours.
(§2) In FIG. 3B, DU145 and DU145-DR cells were treated with increasing concentrations of BT-772 for twenty-four hours.

[2] = system: DU145 cells; assay: Clonogenic assay, DU145; settings: DU145 cells growing as colonies
Experimental: (§3) FIG. 4B is a photographic image of a clonogenic assay-based dose response for the ligand BT-772 in the DU145 and DU145-DR cell lines, in accordance with an embodiment of the disclosure.
(§4) FIG. 4A and FIG. 4B, for example, show images of clonogenic assays, used primarily to determine cancer cell colony formation capacity and proliferation. In FIG. 4A, PC3 and PC3-DR cells were grown at low density in 6-well plates and allowed to form clones for 10 days.
(§5) In FIG. 4B, DU145 and DU145-DR cells growing as colonies were treated with low micromolar concentrations of BT-772 and clonogenicity was noticeable inhibited at concentrations above 3 μM in DU145 cells and at concentrations above 1 μM in DU145-DR cells.

[3] = system: DU145-DR (taxane resistant variant of DU145); assay: MTT assay cell viability, DU145-DR; settings: Homo sapiens, DU-145, DU145-DR cells, twenty-four hours, read-out: IC50, cytotoxic activity
Description: (§6) FIG. 3B is a graphical representation of 3-(4,5-dimethylthiazol-2-yl)-2,5-diphenyl-2H-tetrazolium bromide MTT assay-based dose response curve for the ligand BT-772 in the DU145 prostate cancer cell line and its taxane resistant variant DU145-DR, in accordance with an embodiment of the disclosure.
as §1, §2

[4] = system: PC3-DR cells; assay: Clonogenic assay, PC3-DR; settings: 6-well plates, 10 days
Experimental: FIG. 4A is a photographic image of a clonogenic assay-based dose response for the ligand BT-772 in the PC3 and PC3-DR cell lines, in accordance with an embodiment of the disclosure.
as §4

[5] = system: PC3-DR (taxane resistant variant of PC3); assay: MTT assay cell viability, PC3-DR; settings: PC3-DR cells, twenty-four hours, read-out: IC50 (drug concentration causing 50% inhibition), cytotoxic activity
Description: (§7) FIG. 3A is a graphical representation of 3-(4,5-dimethylthiazol-2-yl)-2,5-diphenyl-2H-tetrazolium bromide (MTT) assay-based dose response curve for the ligand BT-772 in the PC3 prostate cancer cell line and its taxane resistant variant PC3-DR, in accordance with an embodiment of the disclosure.
as §1

[6] = system: PC3 prostate cancer cell line; assay: MTT assay cell viability, PC3; settings: Homo sapiens, PC-3, PC3 cells, twenty-four hours, read-out: IC50 (drug concentration causing 50% inhibition), cytotoxic activity
Description: as §7, §1

[7] = system: DU145 prostate cancer cell line; assay: MTT assay cell viability, DU145; settings: Homo sapiens, DU-145, DU145 cells, twenty-four hours, read-out: IC50, cytotoxic activity
Description: as §6, §1, §2

[8] = system: DU145-DR cells; assay: Clonogenic assay, DU145-DR; settings: DU145-DR cells growing as colonies
Experimental: as §3, §4, §5

SMILES | cytotoxic activity (anti-cancer effects) [1] | cytotoxicity compared with the other compounds of the ten [1] | cell viability [1] | concentration above which clonogenicity was noticeably inhibited [2] | IC50 [3] [µM] | concentration above which clonogenicity was noticeably inhibited [4] | IC50 [5] [µM] | IC50 [6] [µM] | IC50 [7] [µM] | concentration above which clonogenicity was noticeably inhibited [8]
Cc1ccc(CN(C(=O)CCl)c2cccc(B3OC(C)(C)C(C)(C)O3)c2)cc1 [BT-772, 2-chloro-N-(4-methylbenzyl)-N-(3-(4,4,5,5-tetramethyl-1,3,2-dioxaborolan-2-yl)phenyl) acetamide] | low μM cytotoxic activity | higher cytotoxic than the other eight compounds | dose-dependent reduction in cell viability | above 3 μM | 5 to 10 | above 3 M | 5 to 10 | 5 to 10 | 5 to 10 | above 1 μM
N#Cc1ccc(B2Nc3ccccc3-c3nc4ccccc4n32)s1 [BT-768, 5-(benzo[e]benzo[4,5]imidazo[1,-c][1,3,2]diazaborinin-6 (5H)-yl)thiopene-2-carbonitrile] | low μM cytotoxic activity | higher cytotoxic than the other eight compounds | dose-dependent reduction in cell viability | – | – | – | – | – | – | –
